Here are results for 13 compounds from patent US9688638B2, “Opioid agonists and uses thereof” (priority 2013, dated 2017).

This assay deals with Swiss Albino or CD-1 male mice. Kind of assay: Acetic acid writhing (AAW) analgesic assay. The class given is in vivo. As to conditions: for inhibition in vivo at 10 mg/kg / inhibition in vivo at 3 mg/kg / inhibition in vivo at 30 mg/kg / inhibition in vivo at 0.3 mg/kg: Mus musculus, 20 min, read-out: AAW % Efficacy. On the procedure: Approaches for evaluating analgesic activity of a compound of the present invention in vivo include a “writhing test.” Briefly, the compound to be tested is administered [by, for example, injection (e.g., subcutaneous injection)] to the mouse. Thereafter, a 0.5% acetic acid solution is administered (i.p.) to a mouse and the numbers of writhing responses are counted for twenty minutes. Antinociception is quantified as reduction in the number of writhes respective to vehicle.
An analgesic assay was used to determine whether a given compound can reduce and/or prevent visceral pain in mice. The assay utilizes Swiss Albino or CD-1 male mice (5-10 mice per group), each mouse being approximately 0.015-0.030 kg on the study day. Mice were treated according to standard protocols.
The animal was given an intraperitoneal (IP) injection of an irritant (acetic acid) that induces “writhing” which may include: contractions of the abdomen, twisting and turning of the trunk, arching of the back and the extension of the hindlimbs. Mice are given a single IP injection (0.1 mL/10 g bodyweight) of a 0.5% acetic acid solution. After the injection the animals were returned to their observation enclosure and their behavior was observed. Contractions were counted between 0 and 20 minutes after the injection. The animals were used once. In certain instances, the test articles were administered at multiple doses to determine a dose response curve.
Table 4 provides the results for certain compounds of the present invention that were administered subcutaneously. Table 5 provides the results for certain compounds of the present invention that were administered orally.

The structures appear in SMILES notation. Values joined by “and” are separate entries in the source; they are usually repeats but may differ in a detail not shown here. Identical values can stand only once. Like-named read-outs stand apart in the source and are kept apart here.

As for `COCCOCCOCCOCCOCCNc1nc2cc3c(cc2s1)C(=O)[C@@H]1[C@H](C)[C@@]3(C)CCN1CC1CC1` [Compound 13, (6S,10R,12R)-2-(2,5,8,11,14-pentaoxahexadecan-16-ylamino)-7-(cyclopropylmethyl)-10,12-dimethyl-7,8,9,10-tetrahydro-6,10-methanothiazolo[4′,5′:4,5]benzo[1,2-d]azocin-5(6H)-one], the inhibition in vivo at 10 mg/kg (sc, subcutaneous, 10 mg/kg) came to 40.2%.

On to `COCCOCCN1CC[C@@]2(C)c3cc(O)ccc3C(=O)[C@@H]1[C@@H]2C` [Compound 14, (2S,6R,11R)-8-hydroxy-3-(2-(2-methoxyethoxy)ethyl)-6,11-dimethyl-3,4,5,6-tetrahydro-2,6-methanobenzo[d]azocin-1(2H)-one], for which, where the note is “sc, subcutaneous, 10 mg/kg”, the inhibition in vivo at 10 mg/kg came to 13.2%.

In the case of `COCCOCCNCc1ccc2c(c1)[C@]1(C)CCN(CC3CC3)[C@H](C2=O)[C@@H]1C` [Compound 18, (2S,6R,11R)-3-(cyclopropylmethyl)-8-(((2-(2-methoxyethoxy)ethyl)amino)methyl)-6,11-dimethyl-3,4,5,6-tetrahydro-2,6-methanobenzo[d]azocin-1(2H)-one], the inhibition in vivo at 10 mg/kg (sc, subcutaneous, 10 mg/kg) turned out to be 31.9%.

In the case of `C[C@H]1[C@H]2C(=O)c3cc4sc(N)nc4cc3[C@]1(C)CCN2CC1CC1` [Step 1 of 13, (6S,10R,12R)-2-amino-7-(cyclopropylmethyl)-10,12-dimethyl-7,8,9,10-tetrahydro-6,10-methanothiazolo[4′,5′:4,5]benzo[1,2-d]azocin-5(6H)-one], the inhibition in vivo at 10 mg/kg (sc, subcutaneous, 10 mg/kg) was 100%.

As for `COCCOCCOCCOCCOCCOc1ccccc1Nc1ccc2c(c1)[C@]1(C)CCN(CC3CC3)[C@H](C2=O)[C@@H]1C` [Compound 7, (2S,6R,11R)-8-((2-(2,5,8,11,14-pentaoxahexadecan-16-yloxy)phenyl)amino)-3-(cyclopropylmethyl)-6,11-dimethyl-3,4,5,6-tetrahydro-2,6-methanobenzo[d]azocin-1(2H)-one], under “sc, subcutaneous, 3 mg/kg”, the inhibition in vivo at 3 mg/kg was found to be 38.8%. Besides, for the setting “sc, subcutaneous”, the inhibition in vivo at 30 mg/kg stood at 84.8%. The “AAW percent efficacy, outlier data removed” value (from here on “AAW percent efficacy”) (subcutaneous, 3 mg/kg) turned out to be 31.95.

For the compound `COCCOCCOCCOCCOCCOc1ccc(Nc2ccc3c(c2)[C@]2(C)CCN(CC4CC4)[C@H](C3=O)[C@@H]2C)cc1` [Compound 9, (2S,6R,11R)-8-((4-(2,5,8,11,14-pentaoxahexadecan-16-yloxy)phenyl)amino)-3-(cyclopropylmethyl)-6,11-dimethyl-3,4,5,6-tetrahydro-2,6-methanobenzo[d]azocin-1(2H)-one], the inhibition in vivo at 10 mg/kg reads like this: (po, oral, 10 mg/kg) 38.5%; (sc, subcutaneous, 10 mg/kg) 95.4%. For the same compound, where the note is “sc, subcutaneous, 0.3 mg/kg”, the inhibition in vivo at 0.3 mg/kg came out at 13.3%. In addition, the inhibition in vivo at 3 mg/kg (sc, subcutaneous, 3 mg/kg) stood at 67.8%. Besides, for the setting “sc, subcutaneous”, the inhibition in vivo at 30 mg/kg worked out at 99.2%. For the same compound, the “AAW percent efficacy” value (subcutaneous, 0.3 mg/kg) worked out at 13.18; the “AAW percent efficacy” value (subcutaneous, 3 mg/kg) is 64.20 and 57.09; the “AAW percent efficacy” value (subcutaneous, 10 mg/kg) turned out to be 94.93.

Take `COCCOCC(=O)Nc1ccc2c(c1)[C@]1(C)CCN(CC3CC3)[C@H](C2=O)[C@@H]1C` [Compound 15, N-((2S,6R,11R)-3-(cyclopropylmethyl)-6,11-dimethyl-1-oxo-1,2,3,4,5,6-hexahydro-2,6-methanobenzo[d]azocin-8-yl)-2-(2-methoxyethoxy)acetamide]: the inhibition in vivo at 10 mg/kg (sc, subcutaneous, 10 mg/kg) amounted to 100%.

`COCCOCCOCCOCCOCCNc1cccc(Nc2ccc3c(c2)[C@]2(C)CCN(CC4CC4)[C@H](C3=O)[C@@H]2C)c1` [Compound 11, (2S,6R,11R)-8-((3-(2,5,8,11,14-pentaoxahexadecan-16-ylamino)phenyl)amino)-3-(cyclopropylmethyl)-6,11-dimethyl-3,4,5,6-tetrahydro-2,6-methanobenzo[d]azocin-1(2H)-one]: the inhibition in vivo at 10 mg/kg (po, oral, 10 mg/kg) was found to be 31.2% and the inhibition in vivo at 10 mg/kg (sc, subcutaneous, 10 mg/kg) amounted to 99.1%. In addition, where the note is “sc, subcutaneous, 0.3 mg/kg”, the inhibition in vivo at 0.3 mg/kg was 21.1%. The inhibition in vivo at 3 mg/kg (sc, subcutaneous, 3 mg/kg) worked out at 62.2%. Besides, where the note is “sc, subcutaneous”, the inhibition in vivo at 30 mg/kg worked out at 100%. For the same compound, the “AAW percent efficacy” value reads like this: (subcutaneous, 0.3 mg/kg) 12.30; (subcutaneous, 3 mg/kg) 56.21 and 60.30; (subcutaneous, 10 mg/kg) 99.00.

On to `COCCNC(=O)c1ccc2c(c1)[C@]1(C)CCN(CC3CC3)[C@H](C2=O)[C@@H]1C` [Compound 16, (2S,6R,11R)-3-(cyclopropylmethyl)-N-(2-methoxyethyl)-6,11-dimethyl-1-oxo-1,2,3,4,5,6-hexahydro-2,6-methanobenzo[d]azocine-8-carboxamide], for which, under “sc, subcutaneous, 10 mg/kg”, the inhibition in vivo at 10 mg/kg was determined as 26.4%.

As to `COCCOCCOCCOCCOCCOc1cccc(Nc2ccc3c(c2)[C@]2(C)CCN(CC4CC4)[C@H](C3=O)[C@@H]2C)c1` [Compound 8, (2S,6R,11R)-8-((3-(2,5,8,11,14-pentaoxahexadecan-16-yloxy)phenyl)amino)-3-(cyclopropylmethyl)-6,11-dimethyl-3,4,5,6-tetrahydro-2,6-methanobenzo[d]azocin-1(2H)-one], under “sc, subcutaneous, 3 mg/kg”, the inhibition in vivo at 3 mg/kg is 38%. Besides, the inhibition in vivo at 30 mg/kg (sc, subcutaneous) was determined as 100%. Also, the “AAW percent efficacy” value (subcutaneous, 3 mg/kg) was found to be 31.07.

`COCCOCCOCCOCCOCCNc1ccc(Nc2ccc3c(c2)[C@]2(C)CCN(CC4CC4)[C@H](C3=O)[C@@H]2C)cc1` [Compound 10, (2S,6R,11R)-8-((4-(2,5,8,11,14-pentaoxahexadecan-16-ylamino)phenyl)amino)-3-(cyclopropylmethyl)-6,11-dimethyl-3,4,5,6-tetrahydro-2,6-methanobenzo[d]azocin-1(2H)-one]: under “sc, subcutaneous”, the inhibition in vivo at 30 mg/kg was 100%. Besides, for the setting “subcutaneous, 3 mg/kg”, the “AAW % Efficacy” value is 34.0% and the “AAW percent efficacy” value is 26.63.

On to `COCCOCC(=O)NCc1ccc2c(c1)[C@]1(C)CCN(CC3CC3)C(C2=O)[C@@H]1C` [Compound 17, N,N-(((2S,6R,11R)-3-(cyclopropylmethyl)-6,11-dimethyl-1-oxo-1,2,3,4,5,6-hexahydro-2,6-methanobenzo[d]azocin-8-yl)methyl)-2-(2-methoxyethoxy)acetamide], for which, under “sc, subcutaneous, 10 mg/kg”, the inhibition in vivo at 10 mg/kg stood at 23.3%.

Consider `COCCOCCOCCOCCOCCOc1c(O)ccc2c1[C@]1(C)CCN(CC3CC3)[C@H](C2=O)[C@@H]1C` [Compound 19, (2S,6R,11R)-7-(2,5,8,11,14-pentaoxahexadecan-16-yloxy)-3-(cyclopropylmethyl)-8-hydroxy-6,11-dimethyl-3,4,5,6-tetrahydro-2,6-methanobenzo[d]azocin-1(2H)-one], for which the inhibition in vivo at 10 mg/kg (sc, subcutaneous, 10 mg/kg) turned out to be 31.6%.
